Measured values as given in patent US4713200A, “Pesticidal compounds” (Burroughs Wellcome Co., priority 1984, dated 1987).

Legend:
Format in all cases: in vivo
[1] = system: Mixed sex Musca domestica; assay: Knockdown activity against houseflies (Kearns and March chamber spray); details: for KD10 min % effect: 10 min
Protocol: Mixed sex Musca domestica were held in a Kearns and March chamber and sprayed with 0.2 ml of a solution of the compound in OPD/dichloromethane. Knockdown was assessed at 1 min. intervals for 10 mins.

[2] = system: female Culex quinquefasciatus; assay: Knockdown activity against mosquitoes (wind tunnel spray); details: for KD10 min % effect: 10 min; for Kill: 24 hrs
Protocol: The knockdown activity of compounds was assessed as follows: Caged female Culex quinquefasciatus were sprayed in a wind tunnedl with 0.2 ml of a solution of the compound in odourless petroleum distillate (OPD)/dichloromethane (80/20) and knockdown was assessed at minute intervals for 10 mins. The insects were transferred to a holding cup and kept for 24 hrs with sugar/water. Mortalities were assessed at 24 hrs.

Sitophilus granarius = assay: Activity against grain beetles (deposits on grain); details: 6 days
Protocol: Mortality was assessed after 6 days.

[3] = system: female Musca domestica (WRL strain); assay: Lethal activity against house flies (topical application, with and without piperonyl butoxide); details: mortality after 48 hrs; for LD50 (synergised): with synergist 6 μg piperonyl butoxide per insect
Protocol: The test compound was applied with the application of the synergist (6 μg piperonyl butoxide (PB) per insect). Mortality was assessed after 48 hrs.

[4] = system: third instar larvae of Aedes aegypti; assay: Activity against mosquito larvae (aqueous suspension); details: 2.5 ppm cpd (+ 12.5 pb)
[5] = system: Mustard Beetle (Phaedon cochleariae) second-instar larvae; assay: Activity against mustard beetle larvae (topical application)
Protocol: Second-instar larvae were used in all the tests and compounds were applied topically to the dorsal surface of the abdomen, using a microapplicator. Between 10 and 33 larvae were used at each concentration of the chemicals. Analar acetone and Analar butanone were used as solvents. In the first tests a 0.5 μl droplet was applied to each larva but after this the droplet size was increased to 1 μl as the larvae were unaffected by the solvents.
After treatment, all the larvae (usually 20) tested at a particular concentration were confined together on turnip leaves. The leaves were placed on damp filter paper in a petri dish and covered with a second layer of filter paper in the lid of the dish.
The petri dishes were maintained in an incubator at 20° C. and 16 h light. The turnip leaves were replaced as they were eaten by the larvae.
The larvae were assessed at intervals, from 1 h to 216 h after treatment. The following categories were used to classify the larvae:
i. Healthy larvae which were feeding and moved around the dish

male Blattella germanica = assay: Activity against cockroaches (deposit on glass)
Protocol: Knockdown was assessed after 10 and 60 minutes and mortality after 1 day and 6 days.

[6] = system: fully engorged female Boophilus microplus, susceptible strain; assay: Activity against the cattle tick, injection; details: 10 μg/tick, 14 days
Protocol: The compound was supplied as a […] solution in DMSO:Acetone (1:1). Administration of the compound was by means of a microapplicator which was preset to deliver 0.2 μl of solution. The compound in solution was injected into fully engorged female Boophilus microplus, susceptible strain, at a site just lateral to the mouthparts at the rate of 10 μg/tick. Reducing the concentration reduced the dose delivered.
After injection the ticks were maintained at 24° C. and 85% RH for 14 days. At this time the ticks were examined for the presence of viable eggs which gave the percent inhibition of reproduction (% IR).

[7] = 0.1 % cpd (piperonyl butoxide entry printed "^")
[8] = 0.03 % cpd (0.15 piperonyl butoxide)
[9] = 0.3 % cpd (1.5 piperonyl butoxide)
[10] = 500 μg/ml, 1 hour after treatment
[11] = 500 μg/ml, 20 hours after treatment
[12] = 1000 μg/ml, 1 hour after treatment
[13] = 1000 μg/ml, 20 hours after treatment
[14] = 0.1 % cpd (0.5 piperonyl butoxide)

CC(C)CNC(=O)/C=C/C=C/CCCCOCc1cccc(C(F)(F)F)c1 [Example 2, N-isobutyl 9-(3'trifluoromethylbenzyloxy)-(2E,4E)-nonadienamide]
kT50 [1, 7]: 6.1 min
KD10 min % effect [1, 7]: 86%
kT50 [2, 8]: 8.6 min
KD10 min % effect [2, 8]: 56%
Kill [2, 8]: 4%
kT50 [2, 9]: 1.2 min
KD10 min % effect [2, 9]: 100%
Kill [2, 9]: 71%
% mortality (Sitophilus granarius; 20 ppm cpd (+ 100 pb)): 84%
LD50 (synergised) [3]: 0.2 μg/fly
% mortality [4]: 100%
Dead (number of larvae) [5, 10]: 0
Healthy (number of larvae) [5, 10]: 0
Paralysed (number of larvae) [5, 10]: 33
Dead (number of larvae) [5, 11]: 24
Healthy (number of larvae) [5, 11]: 9
Paralysed (number of larvae) [5, 11]: 0
Dead (number of larvae) [5, 12]: 0
Healthy (number of larvae) [5, 12]: 0
Paralysed (number of larvae) [5, 12]: 33
Dead (number of larvae) [5, 13]: 29
Healthy (number of larvae) [5, 13]: 4
Paralysed (number of larvae) [5, 13]: 0
% mortality 1 day (male Blattella germanica; 1400 mg/m^2 (+ 1400 pb)): 50%
% mortality 6 day (male Blattella germanica; 1400 mg/m^2 (+ 1400 pb)): 50%

CC(C)CNC(=O)/C=C/C=C/CCCCCCOCc1cc(C(F)(F)F)cc(C(F)(F)F)c1 [Example 4, N-isobutyl 11-(3',5'-bis-trifluoromethylbenzyloxy)-(2E,4E)-undecadienamide]
% mortality (Sitophilus granarius; 50 ppm cpd (+ 500 pb)): 100%
LD50 (synergised) [3]: 0.025 μg/fly
LD50 (unsynergised) ([3]; without synergist): 0.12 μg/fly
% mortality 1 day (male Blattella germanica; 700 mg/m^2 (+ 700 pb)): 32%
% mortality 6 day (male Blattella germanica; 700 mg/m^2 (+ 700 pb)): 32%

CC(C)CNC(=O)/C=C/C=C/CCCCCOCc1ccccc1 [Example 8, N-iso-butyl 10-(benzyloxy)-(2E,4E)-decadienamide]
LD50 (synergised) [3]: > 5 μg/fly

CC(C)CNC(=O)/C=C/C=C/CCCCOCCOc1cc(Cl)cc(Cl)c1 [Example 66, N--isobutyl 9-(2-(3',5'-dichlorophenoxy)-ethoxy)-nona-2E, 4E-dienamide]
kT50 [1, 14]: 5.1 min
KD10 min % effect [1, 14]: 96%
kT50 [2, 14]: 1.2 min
KD10 min % effect [2, 14]: 96%
Kill [2, 14]: 40%

CC(C)C(C)NC(=O)/C=C/C=C/CCCCOCc1ccc(OC(F)(F)F)cc1 (stereo not shown) [Example 85]
% IR (percent inhibition of reproduction) [6]: 100%
mortality at 10 µg/tick ([6]; Rhipicephalus microplus, 336 h, read-out: % kill): 50%

CC(C)ONC(=O)/C=C/C=C/CCCCOCc1cccc(C(F)(F)F)c1 [Example 89]
LD50 (synergised) [3]: > 5 μg/fly

CC(NC(=O)/C=C/C=C/CCCCCCOCc1cc(C(F)(F)F)cc(C(F)(F)F)c1)C(C)(C)C (stereo not shown) [Example 108]
LD50 (synergised) [3]: 0.09 μg/fly

CC1(C)CC1NC(=O)/C=C/C=C/CCCCCCOCc1cc(C(F)(F)F)cc(C(F)(F)F)c1 (stereo not shown) [Example 109]
LD50 (synergised) [3]: 0.09 μg/fly

CC(C)CNC(=O)/C=C/C=C/CCCCC(=O)Cc1cccc(C(F)(F)F)c1 [Example 122, N--Isobutyl 11-(3-trifluoromethylphenyl)-10-oxo-undeca-2E,-dienamide]
LD50 (synergised) [3]: > 1.5 μg/fly

CCC(CCC/C=C/C=C/C(=O)NCC(C)C)N(C)Cc1ccccc1 (stereo not shown) [Example 126, N--Isobutyl N'--methyl-N'--benzyl-9-aminoundeca-2E, 4E-dienamide]
LD50 (synergised) [3]: > 20 μg/fly
